# Measured values as given in publication PMC10650714, “Double Attack to Oxidative Stress in Neurodegenerative Disorders: MAO-B and Nrf2 as Elected Targets” (Molecules, 2023).
# Values joined by “and” are separate entries in the source; they are usually repeats but may differ in a detail not shown here. Equal values may be shown once. “Also recorded” adds a separate entry of the source. Read-outs that look alike come from different tables or passages of the source.
# Tests used:
# [1] = tested on: ROS production in HepG2 cells; experiment: Intracellular ROS generation rate (DCF-DA); type: cell-based, human; conditions: 5 µM, 30 min; for ROS generation rate (oxidation rate of DCF): both in the presence and absence of antimycin A (10 µM); for effect on antimycin A-induced ROS: antimycin A 10 µM
# Method: Thus, on the basis of the hMAO-B inhibitory potency and on the Nrf2 nuclear translocation results, the most promising compounds 2 and 3 were chosen for the evaluation of their antioxidant activity in the human hepatic HepG2 cells, a valuable cellular system to assess antioxidant properties of the compounds [43, 44]. CAPE and pioglitazone were also tested as reference compounds. HepG2 cells were pre-loaded with dichlorofluorescein diacetate (DCF-DA), a fluorescent probe to detect ROS generation. […] Immediately, antimycin A (10 µM), an inhibitor of the complex III of the mitochondrial electron transport chain, was also added as an ROS inducer. The oxidation rate of DCF, that is, the generation rate of ROS, was detected for 30 min, and for each sample, the corresponding control was also run.
# HepG2 cells (human hepatocellular carcinoma) were purchased from the American Type Culture Collection (ATCC HB-8065). Cells were grown in MEM (M0894, Merck Life Sciences S.r.l., Milan, Italy) supplemented with 2.2 g/L NaHCO3 (S5761, Merck Life Sciences S.r.l., Milan, Italy), 100 U/mL penicillin, 100 μg/mL streptomycin and 0.25 μg/mL amphotericin B (A5955, Merck Life Sciences S.r.l., Milan, Italy) and 10% foetal calf serum (F7524, Merck Life Sciences S.r.l., Milan, Italy). Cells were cultured at 37 °C in a humidified atmosphere incubator containing 5% carbon dioxide in air.
# The intracellular production of ROS was detected via a fluorometric method using 2′,7′-dichlorofluorescein diacetate (D6883, Merck Life Sciences S.r.l., Milan, Italy) as probe. HepG2 cells (6 × 10^3/well) were seeded into a 96-well culture plate in 200 µL of a complete growth medium and incubated for 48 h in standard conditions. The medium was then removed, and cells were washed with 5 mM of PBS–glucose. Then, cells were loaded with 10 μM of 2′,7′-dichlorofluorescein diacetate in 5 mM of PBS–glucose at 37 °C in the dark for 20 min, washed with 5 mM of PBS–glucose, treated with the test compounds at indicated concentrations in 5 mM of PBS–glucose and then analysed. Fluorescence intensity was recorded for 30 min at λemx = 485 nm and λem = 527 nm, using a Victor X3 Multilabel plate reader (Perkin Elmer). The rate of ROS generation was calculated relative to untreated cells (controls) after subtraction of autofluorescence value. Results were presented as the mean values of at least three independent experiments performed with six replicates.
# [2] = target: T1, recombinant hMAO-B (Homo sapiens, UniProt P27338); experiment: hMAO-B activity assay (kynuramine, fluorimetric); type: biochemical; conditions: for SI (selectivity index): calculated as hMAO-A Ki/hMAO-B Ki; for mechanism of hMAO-B inhibition: double reciprocal plots / global fit
# T1 construct: purchased Fluka-Sigma-Aldrich s.r.l; (Italy); host or cells: Baculovirus infected BT1 cells
# T1 sequence (P27338 1-520): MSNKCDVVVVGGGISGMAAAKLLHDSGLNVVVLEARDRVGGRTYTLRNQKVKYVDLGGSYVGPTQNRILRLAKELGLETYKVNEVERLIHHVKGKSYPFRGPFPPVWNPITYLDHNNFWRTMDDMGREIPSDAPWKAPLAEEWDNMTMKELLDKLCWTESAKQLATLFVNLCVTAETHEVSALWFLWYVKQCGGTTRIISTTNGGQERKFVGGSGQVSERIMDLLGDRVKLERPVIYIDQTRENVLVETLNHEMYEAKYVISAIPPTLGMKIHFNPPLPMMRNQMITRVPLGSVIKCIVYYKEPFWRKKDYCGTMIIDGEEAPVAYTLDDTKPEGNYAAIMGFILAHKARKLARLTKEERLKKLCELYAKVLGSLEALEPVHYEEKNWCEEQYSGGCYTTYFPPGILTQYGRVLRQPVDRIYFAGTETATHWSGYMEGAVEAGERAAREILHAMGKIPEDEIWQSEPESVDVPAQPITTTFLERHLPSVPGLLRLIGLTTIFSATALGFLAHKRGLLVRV
# Method: Human recombinant hMAO-A and hMAO-B expressed in Baculovirus infected BT1 cells (5 mg/mL) and horseradish peroxidases were purchased from Fluka-Sigma-Aldrich s.r.l. (Italy). A Cary Eclipse fluorimeter (Varian Inc., Palo Alto, CA, USA) was used for fluorescence measurements. […] At first, the peroxidase-coupled continuous assay that detect the H2O2 generation rate was considered. It uses the Amplex Red reagent as the fluorogenic substrate for horseradish peroxidase.
# By applying this method, hMAO activity assays were performed in K/Pi 0.1 M, EDTA 1 mM (total volume: 200 μL; pH 7.4, T = 37 °C), in the presence and in absence of various concentrations of the different compounds (0.2–20 μM and 2–50 μM in the case of hMAO–B and hMAO-A, respectively).
# MAOs stock solutions were diluted with assay buffer in the presence or absence of the tested compound to obtain a final concentration of 0.005 mg/mL for MAO-A and 0.010 mg/mL for MAO-B; then, kynuramine (10–300 μM final concentration) was added to the assay solution. After 45–60 min of incubation at 37 °C, the reaction was stopped by the addition of 2 M NaOH (80 μL) and 480 μL of distilled water. Kynuramine deaminated by MAO spontaneously cyclizes to provide 4-hydroxyquinoline, the amount of which was determined by the fluorescence intensity of the peak of its emission spectra (λexc = 330 nm and λem 330–530 nm). Then, the rate of reaction was calculated using a specific calibration curve (in the presence of the same amount of the tested compound) built with the standard 4-hydroxyquinoline.
# Under these experimental conditions, the Michaelis–Menten equation for rate of reaction, can be simplified as follows: V ≈ (Vmax/KM) [E]0[S]0 [49]. In the presence of an inhibitor, one or both the kinetic parameters, KM and Vmax, might be affected by its presence, depending on the inhibition mechanism. In particular, in the presence of a reversible inhibitor, both the kinetic parameters could be affected, and the apparent kinetic parameter would then become: KM I = KM,0 (1 + [I]/Ki)/(1 + [I]/(αKi)), and VmaxI = Vmax0/(1 + [I]/(αKi)), where α is the factor indicating how much the dissociation constant of the enzyme-substrate-I complex is different from that of the enzyme–I complex (also named Ki). Consequently, the ratio of the initial rate of reaction in the absence (Vo) and in the presence (VI) of the tested compound (Vo/VI) can be simplified to the ratio of (Vmax/KM)o/(Vmax/KM)I ≈ (1 + [I]/Ki).
# To study the mechanism of inhibition, the steady-state kinetic parameters (Vmax and Km) of MAO-A and MAO-B were determined by performing experiments at different substrate concentrations and in the absence and presence of different concentrations of the tested compound. Vmax and Km were calculated by fitting the Michaelis–Menten equation to the experimental data (initial rate of reactions vs. substrate concentrations), with Sigma Plot software, version 9.0 (Jandel Scientific, San Rafael, CA, USA).
smiles,measurement,setting,value
"O=C(/C=C/c1ccc(O)c(O)c1)OCCc1ccccc1 [CAPE, caffeic acid phenethyl ester, reference compound]",ROS generation rate (oxidation rate of DCF),[1],strongly reducing the oxidation rate of DCF
same,effect on antimycin A-induced ROS,[1],almost abolish the effect of antimycin A stimulus
same,SI (selectivity index),[2],6.7
same,Ki,"[2]; hMAO-B Ki, kynuramine [S] = 10 µM, pH 7.4, 37 °C, mean ± S.D.",1800 ± 200 nM
"O=C(/C=C/c1ccc(O)c(O)c1)Oc1ccc(CC2SC(=O)NC2=O)cc1 (stereo not shown) [Compound 2, 4-((2,4-Dioxothiazolidin-5-yl)methyl)phenyl (E)-3-(3,4-Dihydroxyphenyl)acrylate]",ROS generation rate (oxidation rate of DCF),[1],highest antioxidant potency; also recorded: significantly reduced cellular ROS content
same,effect on antimycin A-induced ROS,[1],almost abolish the effect of antimycin A stimulus
same,SI (selectivity index),[2],66
same,mechanism of hMAO-B inhibition,[2],mixed inhibition
same,Ki,"[2]; global fit analysis, mixed inhibition model, read-out: KEI (inhibition constant for the free enzyme)",450 ± 800 nM
same,Ki,"[2]; kynuramine [S] = 10 µM, pH 7.4, 37 °C, mean ± S.D., read-out: hMAO-B Ki",500 nM and 530 nM
same,Ki,[2]; read-out: hMAO-B Ki,530 nM
"CCc1ccc(CCOc2ccc(CC3SC(=O)NC3=O)cc2)nc1 (stereo not shown) [Pioglitazone, reference compound]",ROS generation rate (oxidation rate of DCF),[1],did not show any effect on the ROS generation rate
same,mechanism of hMAO-B inhibition,[2],selective and competitive inhibitor
